Reference: US9040663B2, “Melanocortin receptor-specific peptides” (AstraZeneca AB, priority 2009, dated 2015)
Where two headings read alike, the source gives them in different places. Positions of bridges follow the written chain, without caps; N, C: chain ends. Non-standard residues stand in square brackets, D forms with d. Residues, ends and D or L forms follow the SMILES beside them. dPhe(4-CN) = N#Cc1ccc(C[C@@H](N)C(=O)O)cc1; Orn = NCCC[C@H](N)C(=O)O

Key:
[1] = target: T1, hMC4-R (Homo sapiens (Human), UniProt P32245); test: Competitive inhibition binding assay using [I125]-NDP-α-MSH, hMC4-R; details: membranes of HEK-293 cells expressing recombinant hMC4-R, read-out: MC4-R Ki
T1 sequence (P32245 whole entry): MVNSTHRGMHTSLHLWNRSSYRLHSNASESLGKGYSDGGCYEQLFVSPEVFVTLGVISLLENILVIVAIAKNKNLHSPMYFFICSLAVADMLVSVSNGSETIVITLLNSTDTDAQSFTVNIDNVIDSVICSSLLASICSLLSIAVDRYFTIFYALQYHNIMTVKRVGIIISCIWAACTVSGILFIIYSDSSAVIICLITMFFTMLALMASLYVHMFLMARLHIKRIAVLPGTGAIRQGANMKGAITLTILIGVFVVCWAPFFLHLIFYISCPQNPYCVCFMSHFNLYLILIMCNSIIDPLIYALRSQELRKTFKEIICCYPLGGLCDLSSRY

[2] = target: MC1-R; test: Competitive inhibition binding assay using [I125]-NDP-α-MSH, MC1-R; details: membranes of B-16 mouse melanoma cells (endogenous MC1-R), in some instances HEK-293 hMC1-R
Experimental: 7.1 Competitive Inhibition Assay using [I^125]-NDP-α-MSH.
A competitive inhibition binding assay was performed for exemplified peptides according to the invention using membrane homogenates prepared from HEK-293 cells that express recombinant hMC4-R, hMC3-R, or hMC5-R, and from B-16 mouse melanoma cells (containing endogenous MC1-R). In some instances, HEK-293 cells that express recombinant hMC1-R were employed. Assays were performed in 96 well GF/B Millipore multiscreen filtration plates (MAFB NOB10) pre-coated with 0.5% bovine serum albumin (Fraction V). Membrane homogenates were incubated with 0.2 nM (for hMC4-R) 0.4 nM (for MC3-R and MC5-R) or 0.1 nM (for mouse B16 MC1-R or hMC1-R) [I^125]-NDP-α-MSH (Perkin Elmer) and increasing concentrations of test peptides of the present invention in buffer containing 25 mM HEPES buffer (pH 7.5) with 100 mM NaCl, 2 mM CaCl2, 2 mM MgCl2, 0.3 mM 1,10-phenanthroline, and 0.2% bovine serum albumin. After incubation for 60 minutes at 37° C., the assay mixture was filtered and the membranes washed three times with ice-cold buffer. Filters were dried and counted in a gamma counter for bound radioactivity. […] Maximal specific binding (100%) was defined as the difference in radioactivity (cpm) bound to cell membranes in the absence and presence of 1 μM NDP-α-MSH. […] Each assay was conducted in triplicate and the actual mean values are described, with results less than 0% reported as 0%. Ki values for test peptides of the present invention were determined using Graph-Pad Prism® curve-fitting software.

[3] = target: T1, hMC4-R; test: High and low density hMC4-R functional assay (cAMP, HEK293-T-REx-MC4-R cells); type: cell-based; details: for Emax: NDP-α-MSH = 100%, read-out: Intrinsic Activity (%)
[4] = 0.1 ng/mL Doxycycline (low density hMC4-R system)
[5] = 10 ng/mL Doxycycline (high density hMC4-R system)

Ki [1] [nM]	Ki [2] [nM]	Emax [3, 4] [%]	EC50 [3, 5] [nM]	Emax [3, 5] [%]	EC50 [3, 4] [nM]	SMILES
2	880	8	0.5	93	–	CC(=O)N[C@@H](CCCNC(=N)N)C(=O)N[C@H]1CCC(=O)NCCC[C@@H](C(N)=O)NC(=O)[C@H](Cc2c[nH]c3ccccc23)NC(=O)[C@H](CCCNC(=N)N)NC(=O)[C@@H](Cc2ccc(C#N)cc2)NC(=O)[C@@H]2C[C@@H](O)CN2C1=O [Example 40, Ac-Arg-cyclo(Glu-Hyp-D-Phe(4-CN)-Arg-Trp-Orn)-NH2]
3	4300	5	0.8	84	–	CC(=O)N[C@@H](CCCNC(=N)N)C(=O)N[C@H]1CCC(=O)NCCC[C@@H](C(N)=O)NC(=O)[C@H](Cc2c[nH]c3ccccc23)NC(=O)[C@H](CCCNC(=N)N)NC(=O)[C@@H](Cc2ccc(C#N)cc2)NC(=O)[C@H](C)NC1=O [Example 41, Ac-Arg-cyclo(Glu-Ala-D-Phe(4-CN)-Arg-Trp-Orn)-NH2] (Ac-REA[dPhe(4-CN)]RW[Orn]-NH2; lactam 2-7)
18	1620	22	–	99	11	CC(=O)N[C@@H](CCCNC(=N)N)C(=O)N[C@H]1CCC(=O)NCCC[C@@H](C(N)=O)NC(=O)[C@H](Cc2c[nH]c3ccccc23)NC(=O)[C@H](CCCNC(=N)N)NC(=O)[C@@H](Cc2ccc(C#N)cc2)NC(=O)[C@H]([C@@H](C)O)NC1=O [Example 44, Ac-Arg-cyclo(Glu-Thr-D-Phe(4-CN)-Arg-Trp-Orn)-NH2]
10	10000	12	0.45	87	–	CC(=O)N[C@@H](CCCNC(=N)N)C(=O)N[C@H]1CCC(=O)NCCC[C@@H](C(N)=O)NC(=O)[C@H](Cc2c[nH]c3ccccc23)NC(=O)[C@H](CCCNC(=N)N)NC(=O)[C@@H](Cc2ccc(C#N)cc2)NC(=O)[C@H](CO)NC1=O [Example 45, Ac-Arg-cyclo(Glu-Ser-D-Phe(4-CN)-Arg-Trp-Orn)-NH2]
0.3	25	36	0.373	100	0.31	CC(=O)N[C@@H](CCCNC(=N)N)C(=O)N[C@H]1CCC(=O)NCCC[C@@H](C(N)=O)NC(=O)[C@H](Cc2c[nH]c3ccccc23)NC(=O)[C@H](CCCNC(=N)N)NC(=O)[C@@H](Cc2ccccc2Cl)NC(=O)[C@H](COCc2ccccc2)NC1=O [Example 47, Ac-Arg-cyclo(Glu-Ser(Bzl)-D-Phe(2-Cl)-Arg-Trp-Orn)-NH2]
15	545	6	4	93	–	CC(=O)N[C@@H](CCCNC(=N)N)C(=O)N[C@H]1CCC(=O)NCCC[C@@H](C(N)=O)NC(=O)[C@H](Cc2c[nH]c3ccccc23)NC(=O)[C@H](CCCNC(=N)N)NC(=O)[C@@H](Cc2ccccc2Cl)NC(=O)[C@H](Cc2cccc(C(N)=O)c2)NC1=O [Example 48, Ac-Arg-cyclo(Glu-Phe(3-C(═O)—NH2)-D-Phe(2-Cl)-D-Phe-Arg-Trp-Orn)-NH2]
8	8	74	0.235	93	2	CC(=O)N[C@@H](CCCNC(=N)N)C(=O)N[C@H]1CCC(=O)NCCC[C@@H](C(=O)O)NC(=O)[C@H](Cc2c[nH]c3ccccc23)NC(=O)[C@H](CCCNC(=N)N)NC(=O)[C@@H](Cc2ccccc2Cl)NC(=O)[C@H](CCCN)NC1=O [Example 49, Ac-Arg-cyclo(Glu-Orn-D-Phe(2-Cl)-Arg-Trp-Orn)-OH]
0.6	3	22	0.4	95	0.64	CC(=O)N[C@H](CCCNC(=N)N)C(=O)N[C@H]1CCCNC(=O)CC[C@@H](C(N)=O)NC(=O)[C@H](Cc2c[nH]c3ccccc23)NC(=O)[C@H](CCCNC(=N)N)NC(=O)[C@@H](Cc2cccc(Cl)c2)NC(=O)[C@H](Cc2c[nH]cn2)NC1=O [Example 51, Ac-D-Arg-cyclo(Orn-His-D-Phe(3-Cl)-Arg-Trp-Glu)-NH2]
0.6	6	31	0.2	99	0.325	CC(=O)N[C@H](CCCNC(=N)N)C(=O)N[C@H]1CCCNC(=O)CC[C@@H](C(N)=O)NC(=O)[C@H](Cc2c[nH]c3ccccc23)NC(=O)[C@H](CCCNC(=N)N)NC(=O)[C@@H](Cc2ccc(C#N)cc2)NC(=O)[C@H](Cc2c[nH]cn2)NC1=O [Example 52, Ac-D-Arg-cyclo(Orn-His-D-Phe(4-CN)-Arg-Trp-Glu)-NH2]
0.95	0.75	86	0.13	90	0.13	CC(=O)N[C@H](CCCNC(=N)N)C(=O)N[C@H]1CCCNC(=O)CC[C@@H](C(N)=O)NC(=O)[C@H](Cc2c[nH]c3ccccc23)NC(=O)[C@H](CCCNC(=N)N)NC(=O)[C@@H](Cc2ccccc2F)NC(=O)[C@H](Cc2c[nH]cn2)NC1=O [Example 53, Ac-D-Arg-cyclo(Orn-His-D-Phe(2-F)-Arg-Trp-Glu)-NH2]
20	23	28	0.8	98	10	CC(=O)N[C@@H](CCCNC(=N)N)C(=O)N[C@H]1CCC(=O)NCCC[C@@H](C(=O)O)NC(=O)[C@H](Cc2c[nH]c3ccccc23)NC(=O)[C@H](CCCNC(=N)N)NC(=O)[C@@H](Cc2cccc(Cl)c2)NC(=O)[C@H](CCCN)NC1=O [Example 55, Ac-Arg-cyclo(Glu-Orn-D-Phe(3-Cl)-Arg-Trp-Orn)-OH]
11	30	41	0.3	98	5	CC(=O)NCC[C@@H]1NC(=O)[C@@H](NC(=O)[C@H](CCCNC(=N)N)NC(C)=O)CCC(=O)NCCC[C@@H](C(N)=O)NC(=O)[C@H](Cc2c[nH]c3ccccc23)NC(=O)[C@H](CCCNC(=N)N)NC(=O)[C@@H](Cc2ccccc2Cl)NC1=O [Example 56, Ac-Arg-cyclo(Glu-Dab(Acetyl)-D-Phe(2-Cl)-Arg-Trp-Orn)-NH2]
0.65	1	89	0.095	100	0.25	CC(=O)N[C@H](CCCNC(=N)N)C(=O)N[C@H]1CCCNC(=O)CC[C@@H](C(N)=O)NC(=O)[C@H](Cc2c[nH]c3ccccc23)NC(=O)[C@H](CCCNC(=N)N)NC(=O)[C@@H](Cc2ccc(F)cc2)NC(=O)[C@H](Cc2c[nH]cn2)NC1=O [Example 57, Ac-D-Arg-cyclo(Orn-His-D-Phe(4-F)-Arg-Trp-Glu)-NH2]
1	89	62	0.14	95	0.45	CC(=O)N[C@@H](CCCNC(=N)N)C(=O)N[C@H]1CCC(=O)NCCC[C@@H](C(N)=O)NC(=O)[C@H](Cc2c[nH]c3ccccc23)NC(=O)[C@H](CCCNC(=N)N)NC(=O)[C@@H](Cc2ccc(F)cc2)NC(=O)[C@@H]2C[C@@H](O)CN2C1=O [Example 60, Ac-Arg-cyclo(Glu-Hyp-D-Phe(4-F)-Arg-Trp-Orn)-NH2]
0.35	12	30	0.157	93	0.37	CC(=O)N[C@@H](CCCNC(=N)N)C(=O)N[C@H]1CCC(=O)NCCC[C@@H](C(N)=O)NC(=O)[C@H](Cc2c[nH]c3ccccc23)NC(=O)[C@H](CCCNC(=N)N)NC(=O)[C@@H](Cc2ccccc2Cl)NC(=O)[C@H]([C@@H](C)OCc2ccccc2)NC1=O [Example 63, Ac-Arg-cyclo(Glu-Thr(Bzl)-D-Phe(2-Cl)-Arg-Trp-Orn)-NH2]
